Reference: ChEMBL document CHEMBL4715821, “Discovery of 4-ethoxy-7H-pyrrolo[2,3-d]pyrimidin-2-amines as potent, selective and orally bioavailable LRRK2 inhibitors” (Bioorg Med Chem Lett, 2018)
Values after ≈ are worked out from the molar mass of the structure shown.

Tests used:
[1] = Lipophilicity, logD of compound at pH 7.4; conditions: buffer
[2] = Solubility of the compound in FaSSIF measured after 4 hrs; format: physicochemical
[3] = Metabolic stability in human liver microsomes assessed as intrinsic clearance; format: ADME, Microsome
[4] = biological target: T1, Leucine-rich repeat serine/threonine-protein kinase 2 (Homo sapiens, UniProt Q5S007); assay: Inhibition of recombinant His6-Tev-LRRK2 (1326 to 2527 residues) (unknown origin) using LRRKtide as substrate preincubated for 30 mins followed by substrate addition and measured after 2 hrs in presence of ATP by TR-FRET assay
[5] = biological target: T1, Leucine-rich repeat serine/threonine-protein kinase 2; assay: Inhibition of recombinant full-length LRRK2 (unknown origin) expressed in SH-SY5Y cells assessed as reduction in Ser935 phosphorylation after 60 mins by Alpha Screen assay; format: cell-based
[6] = Permeability ratio across apical side to basolateral side in MDCK2 cells transfected with Bacmam virus containing human BCRP at 3 uM after 90 mins in presence or absence of GF120918 by transwell assay; format: ADME, cell-based, Canis lupus familiaris; conditions: dog, mdck-ii, 1.5 h
[7] = Dose normalized AUC (0 to t) in Han-Wistar rat blood at 2 mg/kg, po measured up to 7 hrs by UPLC-MS/MS analysis; format: ADME, organism-based; conditions: in vivo
[8] = Ratio of total drug concentration in brain to blood in Han-Wistar rat at 2 mg/kg, po; format: ADME, organism-based
[9] = Unbound fraction in Han-Wistar rat brain at 2 mg/kg, po; format: ADME, organism-based
[10] = Dose normalized AUC (0 to t) in Han-Wistar rat brain at 2 mg/kg, po measured up to 7 hrs by UPLC-MS/MS analysis; format: ADME, organism-based; conditions: in vivo
[11] = biological target: Tyrosine-protein kinase SYK (Homo sapiens) (UniProt P43405); assay: Inhibition of SYK (unknown origin) at 1 uM by radioactivity-based enzymatic assay relative to control
[12] = biological target: Mitogen-activated protein kinase kinase kinase 9 (Homo sapiens) (UniProt P80192); assay: Inhibition of MLK1 (unknown origin) at 1 uM by radioactivity-based enzymatic assay relative to control
[13] = Artificial membrane permeability by PAMPA method; format: ADME; conditions: read-out: permeability
[14] = biological target: Tyrosine-protein kinase JAK2 (Homo sapiens) (UniProt O60674); assay: Inhibition of JAK2 (unknown origin) at 1 uM by radioactivity-based enzymatic assay relative to control
[15] = biological target: T2, Mitogen-activated protein kinase kinase kinase kinase 3 (Homo sapiens) (UniProt Q8IVH8); assay: Inhibition of MAP4K3 (unknown origin) at 1 uM by radioactivity-based enzymatic assay relative to control
T2 sequence (whole entry): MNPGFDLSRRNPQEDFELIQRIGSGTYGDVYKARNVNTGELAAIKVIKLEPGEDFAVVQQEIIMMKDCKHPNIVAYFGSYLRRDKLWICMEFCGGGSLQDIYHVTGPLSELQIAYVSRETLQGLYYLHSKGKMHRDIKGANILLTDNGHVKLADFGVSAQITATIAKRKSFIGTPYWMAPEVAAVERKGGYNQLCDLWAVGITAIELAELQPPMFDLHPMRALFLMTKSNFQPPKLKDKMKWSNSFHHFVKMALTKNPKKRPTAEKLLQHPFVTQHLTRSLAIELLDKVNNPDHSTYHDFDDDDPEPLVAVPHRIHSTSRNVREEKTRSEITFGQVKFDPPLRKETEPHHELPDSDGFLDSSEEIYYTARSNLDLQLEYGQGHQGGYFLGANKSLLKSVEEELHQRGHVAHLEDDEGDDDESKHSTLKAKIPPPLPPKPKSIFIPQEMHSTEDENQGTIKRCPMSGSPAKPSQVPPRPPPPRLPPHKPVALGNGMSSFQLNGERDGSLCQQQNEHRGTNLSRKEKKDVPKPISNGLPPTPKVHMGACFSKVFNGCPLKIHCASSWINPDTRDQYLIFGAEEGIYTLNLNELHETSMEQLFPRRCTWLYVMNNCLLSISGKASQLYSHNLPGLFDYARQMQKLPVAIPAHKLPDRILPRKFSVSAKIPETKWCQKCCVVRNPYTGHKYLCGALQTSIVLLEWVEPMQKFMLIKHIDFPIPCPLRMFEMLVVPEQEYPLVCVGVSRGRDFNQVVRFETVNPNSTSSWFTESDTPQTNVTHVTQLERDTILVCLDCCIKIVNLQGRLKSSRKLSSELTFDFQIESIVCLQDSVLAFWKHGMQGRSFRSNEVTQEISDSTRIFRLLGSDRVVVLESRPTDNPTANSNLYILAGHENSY

[16] = biological target: T3, Interleukin-1 receptor-associated kinase 4 (Homo sapiens) (UniProt Q9NWZ3); assay: Inhibition of IRAK4 (unknown origin) at 1 uM by radioactivity-based enzymatic assay relative to control
T3 sequence (whole entry): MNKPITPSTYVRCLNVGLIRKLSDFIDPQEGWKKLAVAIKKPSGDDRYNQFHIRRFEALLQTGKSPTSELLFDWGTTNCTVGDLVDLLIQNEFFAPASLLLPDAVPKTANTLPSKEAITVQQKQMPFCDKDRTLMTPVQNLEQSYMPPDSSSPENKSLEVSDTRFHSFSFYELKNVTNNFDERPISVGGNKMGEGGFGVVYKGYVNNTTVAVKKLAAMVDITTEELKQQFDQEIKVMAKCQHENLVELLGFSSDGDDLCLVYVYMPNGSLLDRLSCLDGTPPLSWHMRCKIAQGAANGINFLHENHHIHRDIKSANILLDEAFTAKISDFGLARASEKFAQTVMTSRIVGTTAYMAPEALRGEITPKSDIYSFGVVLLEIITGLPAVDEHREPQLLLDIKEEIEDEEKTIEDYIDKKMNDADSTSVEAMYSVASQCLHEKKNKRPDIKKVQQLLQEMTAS

T1 sequence (Q5S007 whole entry, the tested form may be a part): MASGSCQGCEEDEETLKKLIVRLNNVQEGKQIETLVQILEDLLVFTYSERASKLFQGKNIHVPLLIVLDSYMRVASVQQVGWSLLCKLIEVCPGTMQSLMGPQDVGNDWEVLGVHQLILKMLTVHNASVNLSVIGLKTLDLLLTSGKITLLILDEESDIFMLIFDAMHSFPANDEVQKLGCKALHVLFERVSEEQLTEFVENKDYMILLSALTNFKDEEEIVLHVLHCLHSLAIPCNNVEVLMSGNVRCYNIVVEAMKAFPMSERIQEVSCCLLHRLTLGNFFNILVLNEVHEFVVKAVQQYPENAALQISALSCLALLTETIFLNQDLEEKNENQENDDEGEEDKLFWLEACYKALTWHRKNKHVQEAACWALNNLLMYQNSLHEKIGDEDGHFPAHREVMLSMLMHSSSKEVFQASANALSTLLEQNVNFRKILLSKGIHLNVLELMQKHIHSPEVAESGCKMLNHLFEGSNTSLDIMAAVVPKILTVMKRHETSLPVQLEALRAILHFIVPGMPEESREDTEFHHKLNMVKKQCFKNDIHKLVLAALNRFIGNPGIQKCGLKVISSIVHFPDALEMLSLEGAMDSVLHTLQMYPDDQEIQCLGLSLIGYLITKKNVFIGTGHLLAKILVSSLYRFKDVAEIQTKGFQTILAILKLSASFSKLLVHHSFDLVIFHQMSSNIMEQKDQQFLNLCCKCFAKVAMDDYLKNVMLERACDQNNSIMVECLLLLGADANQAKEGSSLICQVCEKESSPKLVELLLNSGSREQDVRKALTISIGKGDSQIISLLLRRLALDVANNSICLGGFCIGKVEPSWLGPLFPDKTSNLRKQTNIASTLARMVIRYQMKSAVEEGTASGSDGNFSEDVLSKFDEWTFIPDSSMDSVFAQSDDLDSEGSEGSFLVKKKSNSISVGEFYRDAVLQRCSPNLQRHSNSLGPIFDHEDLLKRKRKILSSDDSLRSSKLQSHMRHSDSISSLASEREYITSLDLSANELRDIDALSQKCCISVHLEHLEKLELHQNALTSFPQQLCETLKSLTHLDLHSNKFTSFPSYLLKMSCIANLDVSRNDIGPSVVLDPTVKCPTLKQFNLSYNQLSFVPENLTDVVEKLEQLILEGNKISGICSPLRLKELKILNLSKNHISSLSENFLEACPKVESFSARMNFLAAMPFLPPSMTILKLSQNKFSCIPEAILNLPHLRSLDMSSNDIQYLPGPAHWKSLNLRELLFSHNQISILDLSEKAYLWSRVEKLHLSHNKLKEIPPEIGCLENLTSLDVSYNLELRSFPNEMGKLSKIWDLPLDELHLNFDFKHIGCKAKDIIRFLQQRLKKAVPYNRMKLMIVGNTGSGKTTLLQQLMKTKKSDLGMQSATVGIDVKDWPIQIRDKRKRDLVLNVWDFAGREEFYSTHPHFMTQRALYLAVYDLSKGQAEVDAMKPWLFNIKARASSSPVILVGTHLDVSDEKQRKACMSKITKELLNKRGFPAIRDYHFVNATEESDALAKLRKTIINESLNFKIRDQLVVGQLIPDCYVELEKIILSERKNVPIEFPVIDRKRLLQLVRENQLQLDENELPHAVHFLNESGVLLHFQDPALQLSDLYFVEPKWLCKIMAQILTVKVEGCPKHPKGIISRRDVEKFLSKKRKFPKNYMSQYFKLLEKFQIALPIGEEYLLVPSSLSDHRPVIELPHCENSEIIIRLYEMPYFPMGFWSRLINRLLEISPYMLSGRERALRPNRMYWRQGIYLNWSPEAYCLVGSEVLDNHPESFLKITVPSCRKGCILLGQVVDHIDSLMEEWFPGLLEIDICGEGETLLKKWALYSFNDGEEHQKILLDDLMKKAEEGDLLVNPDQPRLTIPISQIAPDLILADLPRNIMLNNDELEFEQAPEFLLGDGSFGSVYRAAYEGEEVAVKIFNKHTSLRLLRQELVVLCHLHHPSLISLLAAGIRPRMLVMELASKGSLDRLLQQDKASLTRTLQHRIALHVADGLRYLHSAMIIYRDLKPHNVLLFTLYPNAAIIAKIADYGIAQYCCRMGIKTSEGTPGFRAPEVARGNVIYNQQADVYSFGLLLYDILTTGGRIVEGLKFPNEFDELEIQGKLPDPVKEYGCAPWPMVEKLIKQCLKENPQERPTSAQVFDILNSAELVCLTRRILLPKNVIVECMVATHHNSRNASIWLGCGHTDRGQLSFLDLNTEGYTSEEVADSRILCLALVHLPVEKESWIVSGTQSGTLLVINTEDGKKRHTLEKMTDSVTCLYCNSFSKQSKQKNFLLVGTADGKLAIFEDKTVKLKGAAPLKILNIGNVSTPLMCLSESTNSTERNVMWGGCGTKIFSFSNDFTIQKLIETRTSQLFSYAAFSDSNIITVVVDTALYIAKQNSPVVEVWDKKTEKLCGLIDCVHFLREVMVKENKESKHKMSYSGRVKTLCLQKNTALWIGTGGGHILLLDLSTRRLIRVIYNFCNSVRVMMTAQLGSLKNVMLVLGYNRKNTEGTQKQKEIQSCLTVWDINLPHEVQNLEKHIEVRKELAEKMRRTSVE
Tyrosine-protein kinase JAK2 (Homo sapiens), sequence (O60674 whole entry): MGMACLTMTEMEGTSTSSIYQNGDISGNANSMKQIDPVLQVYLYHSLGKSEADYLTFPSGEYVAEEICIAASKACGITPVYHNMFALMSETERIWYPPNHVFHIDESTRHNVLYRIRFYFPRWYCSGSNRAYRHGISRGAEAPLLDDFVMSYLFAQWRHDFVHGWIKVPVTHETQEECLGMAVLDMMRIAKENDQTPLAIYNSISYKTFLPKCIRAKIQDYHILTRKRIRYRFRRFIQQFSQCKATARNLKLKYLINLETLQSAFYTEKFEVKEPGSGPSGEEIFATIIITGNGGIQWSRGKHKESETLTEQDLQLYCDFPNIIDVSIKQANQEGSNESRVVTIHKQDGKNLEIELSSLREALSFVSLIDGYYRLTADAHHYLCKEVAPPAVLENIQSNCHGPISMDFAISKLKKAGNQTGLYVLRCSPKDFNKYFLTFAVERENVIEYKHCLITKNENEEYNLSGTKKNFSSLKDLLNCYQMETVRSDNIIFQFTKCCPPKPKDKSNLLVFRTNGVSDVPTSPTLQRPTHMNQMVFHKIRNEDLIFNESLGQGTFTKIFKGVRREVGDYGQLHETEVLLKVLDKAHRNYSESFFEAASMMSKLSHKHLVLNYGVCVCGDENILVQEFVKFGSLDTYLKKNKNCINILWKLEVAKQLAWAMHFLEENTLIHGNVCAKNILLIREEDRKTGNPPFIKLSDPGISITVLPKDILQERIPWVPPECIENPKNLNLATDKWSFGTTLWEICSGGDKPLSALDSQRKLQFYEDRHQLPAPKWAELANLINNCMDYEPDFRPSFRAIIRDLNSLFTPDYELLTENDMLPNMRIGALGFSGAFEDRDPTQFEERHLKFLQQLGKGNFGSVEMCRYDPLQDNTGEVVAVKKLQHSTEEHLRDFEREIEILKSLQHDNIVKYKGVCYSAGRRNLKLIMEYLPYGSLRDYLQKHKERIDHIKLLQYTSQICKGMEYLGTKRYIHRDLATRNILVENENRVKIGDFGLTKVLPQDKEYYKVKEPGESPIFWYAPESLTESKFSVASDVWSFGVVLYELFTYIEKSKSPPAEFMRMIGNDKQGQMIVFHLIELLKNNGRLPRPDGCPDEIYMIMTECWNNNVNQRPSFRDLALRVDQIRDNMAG
Mitogen-activated protein kinase kinase kinase 9 (Homo sapiens), sequence (P80192 whole entry, looked up): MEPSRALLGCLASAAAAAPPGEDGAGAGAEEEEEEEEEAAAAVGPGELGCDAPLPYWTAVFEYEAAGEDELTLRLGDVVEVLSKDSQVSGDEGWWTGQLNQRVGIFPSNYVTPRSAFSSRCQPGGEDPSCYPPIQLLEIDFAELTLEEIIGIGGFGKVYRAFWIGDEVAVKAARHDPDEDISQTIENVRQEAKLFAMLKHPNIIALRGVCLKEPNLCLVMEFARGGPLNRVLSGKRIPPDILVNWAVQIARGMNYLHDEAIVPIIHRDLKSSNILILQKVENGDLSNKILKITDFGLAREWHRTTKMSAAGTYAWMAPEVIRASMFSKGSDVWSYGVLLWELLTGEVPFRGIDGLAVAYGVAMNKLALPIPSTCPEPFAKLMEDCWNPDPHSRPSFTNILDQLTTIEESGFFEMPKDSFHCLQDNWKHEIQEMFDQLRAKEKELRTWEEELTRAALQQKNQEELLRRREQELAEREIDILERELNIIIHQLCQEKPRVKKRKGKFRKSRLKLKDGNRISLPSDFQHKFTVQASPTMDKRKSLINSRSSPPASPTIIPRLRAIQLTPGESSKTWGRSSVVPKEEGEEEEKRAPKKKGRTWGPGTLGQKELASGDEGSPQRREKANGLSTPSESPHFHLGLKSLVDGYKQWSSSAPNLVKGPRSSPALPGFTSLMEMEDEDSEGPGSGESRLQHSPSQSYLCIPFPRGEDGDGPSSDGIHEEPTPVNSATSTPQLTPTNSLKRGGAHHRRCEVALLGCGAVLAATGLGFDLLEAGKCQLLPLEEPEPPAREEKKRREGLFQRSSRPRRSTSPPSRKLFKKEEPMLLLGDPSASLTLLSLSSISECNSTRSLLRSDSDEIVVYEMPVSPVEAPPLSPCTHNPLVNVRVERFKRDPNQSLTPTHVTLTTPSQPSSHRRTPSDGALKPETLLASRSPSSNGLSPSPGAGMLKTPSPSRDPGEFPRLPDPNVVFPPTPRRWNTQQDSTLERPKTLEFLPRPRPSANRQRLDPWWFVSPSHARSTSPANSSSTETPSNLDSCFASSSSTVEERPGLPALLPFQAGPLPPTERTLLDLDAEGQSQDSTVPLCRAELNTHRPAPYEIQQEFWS

Q: What does the source list for `CCOc1nc(Nc2ccc(C(=O)N3CCN4CCC[C@H]4C3)cc2OC)nc2[nH]ccc12`?
A: logD [1]: 4.9; solubility at 4 h [2]: 309 µg/mL (≈ 709 µM); CLH [3]: 3.2 mL/min/g

Q: Which results are given for `CCOc1nc(Nc2ccc(C(=O)N3CCN(C)CC3)cc2F)nc2[nH]ccc12`?
A: IC50 [4]: 12.6 nM; IC50 [5]: 158 nM

Q: With `CCOc1nc(Nc2ccc(C(=O)N3CCOC[C@@H]3C)cc2OC)nc2[nH]ccc12` as the compound, how does the logD [1] read?
A: Its logD is 5.

Q: What about the IC50 [4] of the same compound?
A: The IC50 was 7.94 nM.

Q: What about the solubility at 4 h [2] of the same compound?
A: The solubility at 4 h was 154 µg/mL (≈ 374 µM).

Q: And the Ratio [6]?
A: Its Ratio is 1.8.

Q: What about the CLH [3] of the same compound?
A: The CLH was 1.4 mL/min/g.

Q: And the IC50 [5]?
A: Its IC50 is 100 nM.

Q: For `CCOc1cc(C(=O)N2CCN(C)CC2)ccc1Nc1nc(OCC)c2cc[nH]c2n1`, which IC50 [4] is on record?
A: Its IC50 is 10 nM.

Q: And the IC50 [5]?
A: The IC50 was 126 nM.

Q: With `CCOc1nc(Nc2ccc(C(=O)N3CCN(C)CC3)cc2Cl)nc2[nH]ccc12` as the compound, how does the IC50 [4] read?
A: Its IC50 is 12.6 nM.

Q: What about the IC50 [5] of the same compound?
A: The IC50 was 251 nM.

Q: For `CCOc1nc(Nc2ccc(C(=O)N3CCN(C)CC3)cc2OC)nc2[nH]ccc12`, which IC50 [4] is on record?
A: The IC50 was 15.8 nM.

Q: Which logD [1] does the source give for `CCOc1nc(Nc2ccc(C(=O)N3CC4(COC4)C3)cc2OC)nc2[nH]ccc12` here?
A: Its logD is 4.3.

Q: And the IC50 [4]?
A: The IC50 was 63.1 nM.

Q: What about the solubility at 4 h [2] of the same compound?
A: Its solubility at 4 h is 6.2 µg/mL (≈ 15.1 µM).

Q: And the CLH [3]?
A: The CLH was 1.1 mL/min/g.

Q: What about the IC50 [5] of the same compound?
A: Its IC50 is 158 nM.

Q: With `CCOc1nc(Nc2ccc(C(=O)NCC(C)(C)O)cc2OC)nc2[nH]ccc12` as the compound, how does the logD [1] read?
A: Its logD is 4.1.

Q: And the IC50 [4]?
A: The IC50 was 12.6 nM.

Q: What about the solubility at 4 h [2] of the same compound?
A: The solubility at 4 h was 25.5 µg/mL (≈ 63.8 µM).

Q: And the Ratio [6]?
A: The Ratio was 3.8.

Q: And the CLH [3]?
A: The CLH was 0.8 mL/min/g.

Q: What about the IC50 [5] of the same compound?
A: Its IC50 is 126 nM.

Q: For `CCOc1nc(Nc2ccc(C(=O)N3CCN(C)CC3)cc2OC(F)F)nc2[nH]ccc12`, which IC50 [4] is on record?
A: Its IC50 is less than 0.158 nM.

Q: What about the IC50 [5] of the same compound?
A: The IC50 was 158 nM.

Q: What does the source list for `CCOc1nc(Nc2ccc(C(=O)N3CCN(C)CC3)cc2N(C)C)nc2[nH]ccc12`?
A: IC50 [4]: 200 nM; IC50 [5]: 3160 nM

Q: With `CCOc1nc(Nc2ccc(C(=O)N3CCN4CCC[C@@H]4C3)cc2OC)nc2[nH]ccc12` as the compound, how does the logD [1] read?
A: The logD was 4.9.

Q: What about the AUCt/dose [7] of the same compound?
A: Its AUCt/dose is 487 ng·h/g/mg/kg.

Q: And the solubility at 4 h [2]?
A: The solubility at 4 h was 300 µg/mL (≈ 687 µM).

Q: And the Kp [8]?
A: The Kp was 0.51.

Q: And the fraction unbound [9]?
A: The fraction unbound was less than 0.005.

Q: What about the CLH [3] of the same compound?
A: Its CLH is 2.5 mL/min/g.

Q: What about the AUCt/dose [10] of the same compound?
A: Its AUCt/dose is 246 ng·h/g/mg/kg.

Q: For `CCOc1nc(Nc2ccc(C(=O)N3CCN(C)CC3)cc2)nc2[nH]ccc12`, which IC50 [4] is on record?
A: The IC50 was 12.6 nM.

Q: And the IC50 [5]?
A: The IC50 was 79.4 nM.

Q: With `CCOc1nc(Nc2ccc(C(=O)N3CCC4(CC3)CN(C)C4)cc2OC)nc2[nH]ccc12` as the compound, how does the logD [1] read?
A: The logD was 3.

Q: What about the IC50 [4] of the same compound?
A: The IC50 was 6.31 nM.

Q: What about the solubility at 4 h [2] of the same compound?
A: The solubility at 4 h was 621 µg/mL (≈ 1380 µM).

Q: What about the Ratio [6] of the same compound?
A: Its Ratio is 5.

Q: What about the CLH [3] of the same compound?
A: Its CLH is less than 0.777 mL/min/g.

Q: And the IC50 [5]?
A: The IC50 was 63.1 nM.

Q: Which results are given for `CCOc1nc(Nc2ccc(C(=O)N3CCOCC3)cc2OC(C)C)nc2[nH]ccc12`?
A: IC50 [4]: 12.6 nM; IC50 [5]: 631 nM

Q: With `CCOc1nc(Nc2ccc(C(=O)N3CCOCC3)cc2)nc2[nH]ccc12` as the compound, how does the logD [1] read?
A: The logD was 3.9.

Q: And the inhibition [11]?
A: The inhibition was greater than 50%.

Q: And the IC50 [4]?
A: The IC50 was 7.94 nM.

Q: What about the solubility at 4 h [2] of the same compound?
A: The solubility at 4 h was 1.7 µg/mL (≈ 4.63 µM).

Q: And the inhibition [12]?
A: The inhibition was greater than 50%.

Q: And the Papp [13]?
A: Its Papp is 51 ×10⁻⁶ cm/s.

Q: What about the inhibition [14] of the same compound?
A: The inhibition was greater than 50%.

Q: And the inhibition [15]?
A: The inhibition was greater than 50%.

Q: What about the IC50 [5] of the same compound?
A: The IC50 was 63.1 nM.

Q: What about the inhibition [16] of the same compound?
A: Its inhibition is greater than 50%.

Q: What does the source list for `CCOc1nc(Nc2ccc(C(=O)N3CCOC[C@H]3C)cc2OC)nc2[nH]ccc12`?
A: logD [1]: 5.1; IC50 [4]: 15.8 nM; solubility at 4 h [2]: 78.8 µg/mL (≈ 192 µM); Ratio [6]: 2.2; CLH [3]: 0.8 mL/min/g; IC50 [5]: 79.4 nM

Q: With `NC(=O)c1ccc(Nc2nc(NCC(F)(F)F)c3cc[nH]c3n2)cc1` as the compound, how does the logD [1] read?
A: Its logD is 2.8.

Q: What about the inhibition [11] of the same compound?
A: Its inhibition is greater than 50%.

Q: What about the IC50 [4] of the same compound?
A: The IC50 was 12.6 nM.

Q: What about the solubility at 4 h [2] of the same compound?
A: The solubility at 4 h was 8.6 µg/mL (≈ 24.6 µM).

Q: What about the inhibition [12] of the same compound?
A: The inhibition was greater than 50%.

Q: What about the Papp [13] of the same compound?
A: Its Papp is 3.6 ×10⁻⁶ cm/s.

Q: What about the inhibition [14] of the same compound?
A: The inhibition was greater than 50%.

Q: And the inhibition [15]?
A: The inhibition was greater than 50%.

Q: And the IC50 [5]?
A: Its IC50 is 50.1 nM.

Q: What about the inhibition [16] of the same compound?
A: The inhibition was greater than 50%.

Q: For `CCOc1nc(Nc2ccc(C(=O)N3C[C@@H](C)O[C@@H](C)C3)cc2OC)nc2[nH]ccc12`, which logD [1] is on record?
A: The logD was 5.7.

Q: And the IC50 [4]?
A: The IC50 was 63.1 nM.

Q: What about the solubility at 4 h [2] of the same compound?
A: The solubility at 4 h was 4.4 µg/mL (≈ 10.3 µM).

Q: What about the CLH [3] of the same compound?
A: The CLH was 1.5 mL/min/g.

Q: And the IC50 [5]?
A: Its IC50 is 200 nM.

Q: Which results are given for `CCOc1nc(Nc2ccc(C(=O)N3CCC(F)CC3)cc2OC)nc2[nH]ccc12`?
A: IC50 [4]: 6.31 nM; solubility at 4 h [2]: 39.7 µg/mL (≈ 96 µM); CLH [3]: 1.1 mL/min/g; IC50 [5]: 316 nM
